Structures are written as SMILES.

This note sets out measurements from ChEMBL document CHEMBL1759984, “Synthesis and structure-activity relationships of phenylpropanoid amides of serotonin on tyrosinase inhibition” (Bioorg Med Chem Lett, 2011).

One test has as its target T1, Tyrosinase (Agaricus bisporus, UniProt O42713).
T1 sequence (O42713 whole entry): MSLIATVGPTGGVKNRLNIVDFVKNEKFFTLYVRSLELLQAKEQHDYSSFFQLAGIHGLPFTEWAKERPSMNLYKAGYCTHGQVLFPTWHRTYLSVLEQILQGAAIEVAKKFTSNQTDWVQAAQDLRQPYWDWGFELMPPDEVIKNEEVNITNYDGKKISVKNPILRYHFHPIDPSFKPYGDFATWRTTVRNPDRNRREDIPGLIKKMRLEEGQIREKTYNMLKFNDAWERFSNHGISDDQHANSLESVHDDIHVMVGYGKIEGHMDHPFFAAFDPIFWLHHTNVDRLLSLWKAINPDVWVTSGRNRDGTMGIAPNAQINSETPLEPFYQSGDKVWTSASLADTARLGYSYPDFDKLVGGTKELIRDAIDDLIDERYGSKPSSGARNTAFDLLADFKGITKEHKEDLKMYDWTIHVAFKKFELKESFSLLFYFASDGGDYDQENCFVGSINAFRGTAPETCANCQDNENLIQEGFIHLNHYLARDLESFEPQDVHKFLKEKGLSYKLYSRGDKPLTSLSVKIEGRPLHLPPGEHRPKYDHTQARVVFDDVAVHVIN

For test [1], the system named is Radical scavenging activity.
Description: Antioxidant activity assessed as DPPH radical scavenging activity by spectrophotometry

Description for Tyrosinase: Inhibition of mushroom tyrosinase after 25 mins by spectrophotometry

Usually IC50 stands for the midpoint of a concentration-inhibition curve. Low values mean greater potency in that assay, high ones weaker potency in that assay. The EC50 is the concentration that produces a half-maximal response. For `COc1cc(/C=C/C(=O)O)ccc1O` [FERULATE], on Tyrosinase, the IC50 is > 350 µM. Also, the EC50 in test [1] was > 250 µM.

In the case of `COc1ccc(/C=C/C(=O)O)cc1` [4-METHOXYCINNAMIC ACID], at Tyrosinase, the IC50 is > 350 µM. Further, the EC50 in test [1] is > 250 µM.

Take `COc1cc(/C=C/C(=O)O)cc(OC)c1O` [SINAPINATE]: the IC50 against Tyrosinase was > 351 µM. Moreover, the EC50 in test [1] is > 250 µM.

For `COc1cc(/C=C/C(=O)NCCc2c[nH]c3ccc(O)cc23)cc(OC)c1O` [N-SINAPOYL SEROTONIN], the IC50 against Tyrosinase was > 350 µM. The molecule also had an EC50 in test [1] of 30.7 µM.

Regarding `O=C(O)CCC(=O)NCCc1c[nH]c2ccc(O)cc12` [BUFOBUTANOIC ACID], on Tyrosinase, the IC50 was > 350 µM. Besides, in test [1], it took 38.3 µM to reach a half-maximal effect (EC50).

Take `NCCc1c[nH]c2ccc(O)cc12` [SEROTONIN]: the IC50 against Tyrosinase was > 350 µM. Moreover, the EC50 in test [1] is > 250 µM.

Regarding `COc1cc(/C=C/C(=O)NCCc2c[nH]c3ccc(O)cc23)ccc1O` [N-FERULOYL SEROTONIN], at Tyrosinase, it took 8 µM to reach half-maximal inhibition (IC50). This molecule had an EC50 in test [1] of 22.8 µM.

The molecule `COc1ccc(/C=C/C(=O)NCCc2c[nH]c3ccc(O)cc23)cc1O` [N-ISOFERULOYL SEROTONIN] had an IC50 on Tyrosinase of 5.4 µM. The molecule also showed an EC50 in test [1] of 35.1 µM.

In the case of `O=C(/C=C/c1ccccc1)NCCc1c[nH]c2ccc(O)cc12` [N-CINNAMOYL SEROTONIN], 40.4 µM corresponded to half-maximal inhibition against Tyrosinase (IC50). In addition, the concentration for a half-maximal effect (EC50) in test [1] is 22.2 µM.

As for `COc1ccc(/C=C/C(=O)NCCc2c[nH]c3ccc(O)cc23)cc1OC` [N-3,4-DIMETHOXY CINNAMOYL SEROTONIN], inhibition at Tyrosinase was half-maximal at 322 µM (IC50). Further, in test [1], the EC50 was 28.1 µM.

On Tyrosinase, `COc1ccc(/C=C/C(=O)NCCc2c[nH]c3ccc(O)cc23)cc1` [N-P-METHOXY CINNAMOYL SEROTONIN] came in with an IC50 of 23.8 µM. For the same molecule, in test [1], the EC50 was determined as 34.2 µM.

`O=C(/C=C/c1ccc(O)c(O)c1)NCCc1c[nH]c2ccc(O)cc12` [N-CAFFEOYLSEROTONIN] had an IC50 at Tyrosinase of 278 µM. This molecule also returned an EC50 in test [1] of 19.4 µM.

Molecule `O=C(O)/C=C/c1ccc(O)cc1` [COUMARIC ACID] gave an IC50 on Tyrosinase of 121 µM. Also, in test [1], the EC50 is > 250 µM.

On Tyrosinase, `O=C(/C=C/c1ccc(O)cc1)NCCc1c[nH]c2ccc(O)cc12` [N-P-COUMAROYL SEROTONIN] returned an IC50 of 8.8 µM. Moreover, the midpoint of the response in test [1], the EC50, lay at 24.7 µM.
